Results: patent US12214036B2, “Combination therapy comprising AXL/MER and PD-1/PD-L1 inhibitors” (Incyte Corporation, priority 2020, dated 2025)

Tested on: 4T1 tumor
Assay: Tumor models in immunodeficient mice
Type: in vivo, athymic nude mice
Settings: immunodeficient mice bearing the same tumors, FIG. 7C
Description: MBT-2 cells were obtained from the Japanese Collection of Research Bioresources Cell Bank and were maintained in DMEM supplemented with 10% FBS. MC38 cells were obtained from the NCI. 4T1 cells were obtained from ATCC and maintained in RPMI media supplemented with 10% FBS. For MBT-2 experiments, 5×10^5 MBT-2 cells were inoculated subcutaneously into the right hind flank of 6- to 8-week-old C3H mice or athymic nude mice (Charles River Laboratories, Wilmington, Mass.). For MC38 studies, 12-week old female C57BL/6 mice were inoculated with brei of MC38 tumors (in-vivo passage 6) into the right hind flank. For 4T1 studies, 7.5×10^5 4 T1 cells were inoculated subcutaneously into the right hind flank of 6- to 8-week-old female BALB/c mice or athymic nude mice (Charles River Laboratories). Mice were randomized by tumor volume with n=10-12 per group. […] Mice were monitored for tumor growth and overt tolerability over the course of the experiment. […] Tumor volume was calculated using the formula (L×W^2)/2, where L and W refer to the length and width dimensions, respectively. Tumor growth inhibition (TGI) was calculated using the formula (1−(VT/VC))×100, where VT is the tumor volume of the treatment group on the last day of treatment, and VC is the tumor volume of the control group on the last day of treatment. […]

CC(C)C(=O)N1CCC(c2cc(-c3ccc(NC(=O)c4cn(C(C)C)c(=O)n(-c5ccccn5)c4=O)cc3)c3c(N)ncnn23)CC1 [Compound 1, N-(4-(4-Amino-7-(1-isobutyrylpiperidin-4-yl)pyrrolo[1,2-f][1,2,4]triazin-5-yl)phenyl)-1-isopropyl-2,4-dioxo-3-(pyridin-2-yl)-1,2,3,4-tetrahydropyrimidine-5-carboxamide]
antitumor activity in immunodeficient mice: no activity
